Measurements taken from patent US20250333397A1 (REMIX THERAPEUTICS INC., priority 2021, published 2025).
Counter-ions that a name gives are not always drawn. Like-named read-outs stand apart in the source and are kept apart here.

Tests used:
Format in all cases: cell-based, human
SMN2 mRNA = assay: RT-qPCR splicing assay panel, SMN2 canonical junction (CJ) mRNA; settings: Homo sapiens, canonical junction (CJ) mRNA, RT-qPCR panel, Table 4A; read-out: SMN2, decrease in CJ mRNA levels, IC50
Summary of the method: (§1)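 CJ and AJ junction levels were quantified by RT-qPCR on lysates, with housekeeper ΔCt normalized to DMSO (ΔΔCt) and expressed as RQ = 2^(-ΔΔCt). Before lysis, K562 or A673 cells had 24 h compound exposure at 37 °C. Dosing was 11 points, 3-fold, from 10 uM final, with DMSO at most 0.25%.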

Target C mRNA = assay: RT-qPCR splicing assay panel, Target C canonical junction (CJ) mRNA; settings: Homo sapiens, canonical junction (CJ) mRNA, RT-qPCR panel, Table 4A; read-out: Target C, decrease in CJ mRNA levels, IC50
Summary of the method: as §1

MYB mRNA = assay: RT-qPCR splicing assay, MYB canonical (CJ) and alternative (AJ) junction mRNA; settings: for AC50: read-out: MYB AJ (AC50, increase in AJ mRNA)
Summary of the method: as §1

HTT mRNA = assay: RT-qPCR splicing assay, HTT canonical (CJ) and alternative (AJ) junction mRNA; settings: Homo sapiens; for AC50: read-out: HTT AJ (AC50, increase in AJ mRNA)
Summary of the method: as §1

[1] = Homo sapiens, 24 h, Table 3A, A673 or K562 cells, 24 h treatment, read-out: MYB CJ (IC50, decrease in CJ mRNA)
[2] = Homo sapiens, canonical junction (CJ) mRNA, RT-qPCR panel, Table 4A, read-out: MYB, decrease in CJ mRNA levels, IC50
[3] = 24 h, Table 3A, A673 or K562 cells, 24 h treatment
[4] = 24 h, Table 3A, A673 or K562 cells, 24 h treatment, read-out: HTT CJ (IC50, decrease in CJ mRNA)
[5] = canonical junction (CJ) mRNA, RT-qPCR panel, Table 4A, read-out: HTT, decrease in CJ mRNA levels, IC50
[6] = Homo sapiens, 24 h, Table 3A, A673 or K562 cells, 24 h treatment

SMILES	IC50 (SMN2 mRNA)	IC50 (Target C mRNA)	IC50 (MYB mRNA; [1])	IC50 (MYB mRNA; [2])	AC50 (MYB mRNA; Table 3A, A673 or K562 cells, 24 h treatment)	AC50 (HTT mRNA; [3])	IC50 (HTT mRNA; [4])	IC50 (HTT mRNA; [5])	AC50 (MYB mRNA; [6])
CN([C@@H]1CCN(c2ccc(-c3ccc(-c4cn[nH]c4)cc3O)nn2)C1)C(C)(C)C [Compound 406, 2-{6-[(3R)-3-[tert-butyl(methyl)amino]pyrrolidin-1-yl]pyridazin-3-yl}-5-(1H-pyrazol-4-yl)phenol]	100 to 1000 nM	100 to 1000 nM	100 to 1000 nM	100 to 1000 nM	1000 to 10000 nM	100 to 1000 nM	100 to 1000 nM	100 to 1000 nM	
Cc1ncc(-c2cc(O)c(-c3ccc(N4CC[C@H](NC5CCC5)C4)nn3)cc2F)o1 [Compound 229, 2-{6-[(3S)-3-(cyclobutylamino)pyrrolidin-1-yl]pyridazin-3-yl}-4-fluoro-5-(2-methyl-1,3-oxazol-5-yl) phenol]	< 100 nM	100 to 1000 nM	100 to 1000 nM	100 to 1000 nM		< 100 nM	< 100 nM	< 100 nM	100 to 1000 nM
COc1cc(-c2cc(O)c(-c3ccc(N4CC[C@H](NC5CC5)C4)nn3)cc2F)cnn1 [Compound 214, 2-{6-[(3S)-3-(cyclopropylamino)pyrrolidin-1-yl]pyridazin-3-yl}-4-fluoro-5-(6-methoxypyridazin-4-yl)phenol]	< 100 nM	100 to 1000 nM	100 to 1000 nM	100 to 1000 nM		< 100 nM	< 100 nM	< 100 nM	100 to 1000 nM
COc1cc(-c2ccc(-c3nnc(N4CC[C@H](NC5CCC5)C4)cc3C)c(O)c2)cnn1 [Compound 450, (S)-2-(6-(3-(cyclobutylamino)pyrrolidin-1-yl)-4-methylpyridazin-3-yl)-5-(6-methoxypyridazin-4-yl)phenol]	1000 to 10000 nM	1000 to 10000 nM	1000 to 10000 nM	1000 to 10000 nM		1000 to 10000 nM	1000 to 10000 nM	1000 to 10000 nM	1000 to 10000 nM
COc1cc(-c2ccc(-c3ccc(N4CCC(CNC(C)(C)C)C4)nn3)c(O)c2)cnn1 (stereo not shown) [Compound 351, 2-(6-{3-[(tert-butylamino)methyl]pyrrolidin-1-yl}pyridazin-3-yl)-5-(6-methoxypyridazin-4-yl)phenol]	100 to 1000 nM	100 to 1000 nM	100 to 1000 nM	100 to 1000 nM		100 to 1000 nM	< 100 nM	< 100 nM	1000 to 10000 nM
COc1cc(-c2cc(O)c(-c3ccc(N4CC[C@H](NC5(C)CCC5)C4)nn3)cc2F)cnn1 [Compound 299]	< 100 nM	100 to 1000 nM	100 to 1000 nM	100 to 1000 nM		< 100 nM	< 100 nM	< 100 nM	100 to 1000 nM
Oc1cc(-c2cn[nH]c2)ccc1-c1ccc(N2CCC(NCC3CC3)C2)nn1 (stereo not shown) [Compound 108, 2-(6-{3-[(cyclopropylmethyl)amino]pyrrolidin-1-yl}pyridazin-3-yl)-5-(1H-pyrazol-4-yl)phenol; methane]	< 100 nM	100 to 1000 nM	100 to 1000 nM	100 to 1000 nM		< 100 nM	< 100 nM	< 100 nM	100 to 1000 nM
Cc1ccc(-c2cc(O)c(-c3ccc(N4CC[C@H](NC5CCC5)C4)nn3)cc2F)cn1 [Compound 223, 2-{6-[(3S)-3-(cyclobutylamino)pyrrolidin-1-yl]pyridazin-3-yl}-4-fluoro-5-(6-methylpyridin-3-yl)phenol]	100 to 1000 nM	1000 to 10000 nM	100 to 1000 nM	100 to 1000 nM		100 to 1000 nM	100 to 1000 nM	100 to 1000 nM	100 to 1000 nM
COc1cc(-c2cc(O)c(-c3ccc(N4CCC(N[C@H]5C[C@H](F)C5)C4)nn3)cc2F)cnn1 (stereo partly shown) [Compound 274]	< 100 nM	100 to 1000 nM	100 to 1000 nM	100 to 1000 nM		100 to 1000 nM	< 100 nM	< 100 nM	100 to 1000 nM
COc1cc(-c2cc(O)c(-c3ccc(N4CCC(N[C@H]5C[C@@H](F)C5)C4)nn3)cc2F)cnn1 (stereo partly shown) [Compound 273, 4-fluoro-5-(6-methoxypyridazin-4-yl)-2-[6-(3-{[(1s,3s)-3-fluorocyclobutyl]amino}pyrrolidin-1-yl)pyridazin-3-yl]phenol]	< 100 nM	100 to 1000 nM	100 to 1000 nM	100 to 1000 nM		100 to 1000 nM	100 to 1000 nM	100 to 1000 nM	100 to 1000 nM
Cc1ncc(-c2cc(O)c(-c3ccc(N4CC[C@H](N(C)C(C)(C)C)C4)nn3)cc2F)s1 [Compound 322, 2-{6-[(3S)-3-[tert-butyl(methyl)amino]pyrrolidin-1-yl]pyridazin-3-yl}-4-fluoro-5-(2-methyl-1,3-thiazol-5-yl) phenol]	< 100 nM	< 100 nM	< 100 nM	< 100 nM		< 100 nM	< 100 nM	< 100 nM	< 100 nM
CC(C)(C)NC1CCN(c2ccc(-c3ccc(-n4cccn4)c(O)c3)nn2)C1 (stereo not shown) [Compound 109, 5-{6-[3-(tert-butylamino)pyrrolidin-1-yl]pyridazin-3-yl}-2-(pyrazol-1-yl)phenol trifluoroacetate]	1000 to 10000 nM	> 10000 nM	> 10000 nM	> 10000 nM		> 10000 nM	1000 to 10000 nM	1000 to 10000 nM	> 10000 nM
COc1cc(-c2cc(O)c(-c3ccc(N4CC[C@](C)(NCC5CC5)C4)nn3)cc2F)cnn1 [Compound 452, 2-{6-[(3S)-3-[(cyclopropylmethyl)amino]-3-methylpyrrolidin-1-yl]pyridazin-3-yl}-4-fluoro-5-(6-methoxypyridazin-4-yl)phenol]	100 to 1000 nM	100 to 1000 nM		100 to 1000 nM				< 100 nM	
CNc1cc(-c2ccc(-c3ccc(N4CC[C@H](NC(C)(C)C)C4)nn3)c(O)c2)ncn1 [Compound 436, 2-{6-[(3S)-3-(tert-butylamino)pyrrolidin-1-yl]pyridazin-3-yl}-5-[6-(methylamino)pyrimidin-4-yl]phenol]	< 100 nM	< 100 nM	100 to 1000 nM	100 to 1000 nM		< 100 nM	< 100 nM	< 100 nM	100 to 1000 nM
COc1cc(-c2ccc(-c3ccc(N4CC[C@@](C)(NC5CCC5)C4)nn3)c(O)c2)ncn1 [Compound 366, 2-{6-[(3R)-3-(cyclobutylamino)-3-methylpyrrolidin-1-yl]pyridazin-3-yl}-5-(6-methoxypyrimidin-4-yl)phenol]	< 100 nM	100 to 1000 nM	100 to 1000 nM	100 to 1000 nM		< 100 nM	< 100 nM	< 100 nM	100 to 1000 nM
CN(C1CCN(c2ccc(-c3cc(F)c(-c4cn[nH]c4)cc3O)nn2)C1)C(C)(C)C (stereo in doubt) [Compound 120, 2-{6-[(3R)-3-[tert-butyl(methyl)amino]pyrrolidin-1-yl]pyridazin-3-yl}-4-fluoro-5-(1H-pyrazol-4-yl)phenol]	< 100 nM	< 100 nM	< 100 nM	< 100 nM		< 100 nM	< 100 nM	< 100 nM	< 100 nM
